Reference: PubChem BioAssay (NCI)
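How tested: cells in 96-well plates exposed to compound for 48 hours at five concentrations. The concentration for 50% growth inhibition is given as GI50. TGI marks complete inhibition of growth.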

Tested on: P388 leukemia
Experiment: NCI tumour cell line growth inhibition, 48 h

Row | SMILES | GI50 [µM] | TGI [µM]
1 | O=[Se](=O)c1ccccc1.O=[Se](=O)c1ccccc1.[Cu] | 5.23 | 29
2 | C=C1C(=O)OCC2C(C(=O)O)=CC3C(C)C(C)=CC123 (stereo not drawn) | – | 12.7
